Test results reported in article PMC11245619, “Asymmetric total synthesis of polycyclic xanthenes and discovery of a WalK activator active against MRSA” (Nature Communications, 2024).
pKd: −log10 of the molar value. Values after ≈ are worked out from the molar mass of the structure shown.

Key:
[1] = tested on: T1, Staphylococcus aureus ATCC 29213 (SA29213); assay: microbe, parasite or virus in culture; design: broth microdilution MIC (CLSI), growth inhibition read by MTT; conditions: ATCC29213, 24 h, read-out: MIC
T1 construct: ATCC 29213
Protocol: Antibacterial activities of synthetic compounds in vitro The MICs of the antibacterial agents for all strains were determined using the broth microdilution method according to CLSI guidelines. Wells of 96-well microtiter plates (Nunc, Thermo Fisher Scientific Inc., Roskilde) were inoculated with 100 µL of CAMH broth or CAMH broth with 3% lysed horse blood (S. pneumoniae only), containing serially-diluted antimicrobials and a final inoculum of 5 × 10^5 CFU/mL. The concentration ranges were from 0.0625 to 128 μg/mL for each compound: daptomycin, vancomycin, polymyxin B and oxacillin. The microtiter plates were incubated at 37 °C for 24 h. The MIC was defined as the lowest concentration of an antimicrobial agent that inhibited 90% of bacterial growth determined by the MTT assay (MCE, USA)]. All MIC determinations were performed in duplicate.

WalK (erWalKR86C) = target: T2, WalK (erWalKR86C) (Staphylococcus aureus, UniProt Q6GKS6, R86C); assay: SPR (Biacore 8K, CM5 chip); format: binding
T2 construct: erWalK (residues 35-182) with R86C mutation
T2 sequence (Q6GKS6 35-182 R86C): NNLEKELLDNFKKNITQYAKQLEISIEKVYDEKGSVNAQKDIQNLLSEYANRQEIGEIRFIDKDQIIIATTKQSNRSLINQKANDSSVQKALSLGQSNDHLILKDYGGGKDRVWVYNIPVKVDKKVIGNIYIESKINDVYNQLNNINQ

WalK (erWalK) = target: T3, WalK (erWalK) (Staphylococcus aureus, UniProt Q6GKS6); assay: SPR (Biacore 8K, CM5 chip); format: binding
T3 construct: extracellular part of the receptor WalK (erWalK, residues 35-182)

Row | Structure (SMILES) | MIC [1] [µg/mL] | pKd (WalK (erWalKR86C)) | pKd (WalK (erWalK))
1 | NC[C@H]1O[C@H](O[C@H]2[C@H](O)[C@@H](O[C@H]3O[C@H](CO)[C@@H](O)[C@H](N)[C@H]3O)[C@H](N)C[C@@H]2N)[C@H](O)[C@@H](O)[C@@H]1O [Kanamycin] | 10 (≈ 20.6 µM) | – | –
2 | CC(=O)NC[C@H]1CN(c2ccc(N3CCOCC3)c(F)c2)C(=O)O1 [Linezolid] | 2.5 (≈ 7.41 µM) | – | –
3 | C[C@@H](O)[C@H]1C(=O)N2C(C(=O)O)=C(S[C@@H]3CN[C@H](C(=O)N(C)C)C3)[C@H](C)[C@H]12 [Meropenem] | 0.312 (≈ 0.815 µM) | – | –
4 | CC1COc2c(N3CCN(C)CC3)c(F)cc3c(=O)c(C(=O)O)cn1c23 (stereo not drawn) [Ofloxacin] | 0.2 (≈ 0.553 µM) | – | –
5 | CN(C)c1cc(NC(=O)CNC(C)(C)C)c(O)c2c1C[C@H]1C[C@H]3[C@H](N(C)C)C(O)=C(C(N)=O)C(=O)[C@@]3(O)C(O)=C1C2=O [Tigecycline] | 0.312 (≈ 0.534 µM) | – | –
6 | CN[C@H](CC(C)C)C(=O)N[C@H]1C(=O)N[C@@H](CC(N)=O)C(=O)N[C@H]2C(=O)N[C@H]3C(=O)N[C@H](C(=O)N[C@H](C(=O)O)c4cc(O)cc(O)c4-c4cc3ccc4O)[C@H](O)c3ccc(c(Cl)c3)Oc3cc2cc(c3O[C@@H]2O[C@H](CO)[C@@H](O)[C@H](O)[C@H]2O[C@H]2C[C@](C)(N)[C@H](O)[C@H](C)O2)Oc2ccc(cc2Cl)[C@H]1O [Vancomycin] | 1 (≈ 0.69 µM) | – | –
7 | CC(C)C(=O)c1c(O)c(C(C2=C(O)C(C)(C)C(=O)C(C)(C)C2=O)C(C)C)c(O)c2c1OC1=C(C(=O)C(C)(C)C(=O)C1(C)C)C2C(C)C (stereo not drawn) [compound 22, 22] | 0.5 (≈ 0.768 µM) | 4.13 | 4.95
